Assay results as given in the supplement of paper PMC10307832.

How the values were obtained:
Assay in all cases: relative viability (nuclei count vs DMSO), 5 days (fraction); higher = more cells survive
[1] = compound: O=C(NC1CCNCC1)c1n[nH]cc1NC(=O)c1c(Cl)cccc1Cl [AT-7519] + CS(=O)(=O)N1CCN(Cc2cc3nc(-c4cccc5[nH]ncc45)nc(N4CCOCC4)c3s2)CC1 [Pictilisib] (partner 1 µM)
Method in brief: (§1)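 Cells from lung cancer lines were seeded into 1536-well plates and, one day later, dosed by pin tool. Treatments were either a single drug or a fixed dose of an anchor drug with five library-drug doses (not always all listed) in √10 steps. After 5 days, nuclei were stained in a one-step fixation (final 0.05% Triton X-100, 1% formaldehyde, 1 ug/ml Hoechst) and counted on 4× images, and relative viability is the treated-to-vehicle nuclei ratio, as the median of duplicate plates.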

[2] = compound: O=C(NC1CCNCC1)c1n[nH]cc1NC(=O)c1c(Cl)cccc1Cl [AT-7519] + Nc1nc2[nH]cc(CCc3ccc(C(=O)N[C@@H](CCC(=O)O)C(=O)O)cc3)c2c(=O)[nH]1 [Pemetrexed] (partner 0.2 µM)
Method in brief: as §1

[3] = compound: C1=CC2=C(C=C(C(=C2N=C1)O)N=NC3=CC4=C(C=C3)C=C(C=C4)S(=O)(=O)O)S(=O)(=O)O + Cc1nc(NC(=O)N2CCC[C@H]2C(N)=O)sc1-c1ccnc(C(C)(C)C(F)(F)F)c1 [Alpelisib] (partner 2 µM)
Method in brief: as §1

[4] = compound: C1=CC2=C(C=C(C(=C2N=C1)O)N=NC3=CC4=C(C=C3)C=C(C=C4)S(=O)(=O)O)S(=O)(=O)O + CC(=O)c1c(C)c2cnc(Nc3ccc(N4CCNCC4)cn3)nc2n(C2CCCC2)c1=O [Palbociclib] (partner 0.5 µM)
Method in brief: as §1

Cell Line | relative viability ([1]; first compound 0.01 µM) | relative viability ([1]; first compound 0.03162 µM) | relative viability ([1]; first compound 0.3162 µM) | relative viability ([1]; first compound 1 µM) | relative viability ([2]; first compound 0.01 µM) | relative viability ([2]; first compound 0.03162 µM) | relative viability ([2]; first compound 0.3162 µM) | relative viability ([2]; first compound 1 µM) | relative viability ([3]; first compound 0.08 µM) | relative viability ([3]; first compound 0.253 µM) | relative viability ([3]; first compound 0.8 µM) | relative viability ([3]; first compound 2.53 µM) | relative viability ([3]; first compound 8 µM) | relative viability ([4]; first compound 0.08 µM) | relative viability ([4]; first compound 0.253 µM) | relative viability ([4]; first compound 0.8 µM) | relative viability ([4]; first compound 2.53 µM) | relative viability ([4]; first compound 8 µM)
HCC-78 | 0.208 | 0.214 | 0.146 | 0.209 | 0.916 | 0.885 | 0.88 | 0.884 | 0.406 | 0.325 | 0.319 | 0.345 | 0.266 | 0.566 | 0.463 | 0.505 | 0.45 | 0.466
NCI-H2087 | 1.02 | 0.882 | 0.593 | 0.173 | 0.612 | 0.536 | 0.568 | 0.344 | 0.938 | 0.888 | 1.08 | 0.977 | 0.989 | 0.238 | 0.213 | 0.199 | 0.215 | 0.191
BEN | 0.532 | 0.512 | 0.697 | 0.468 | 0.713 | 0.766 | 0.823 | 0.706 | 1.26 | 0.962 | 0.847 | 1.04 | 0.932 | 0.499 | 0.426 | 0.489 | 0.458 | 0.448
LCLC-103H | 0.624 | 0.517 | 0.488 | 0.557 | 0.461 | 0.476 | 0.437 | 0.401 | 1 | 0.948 | 0.945 | 0.899 | 1.14 | 0.457 | 0.465 | 0.484 | 0.487 | 0.433
EKVX | 0.449 | 0.385 | 0.393 | 0.346 | 0.423 | 0.342 | 0.246 | 0.463 | 1.01 | 0.849 | 0.793 | 0.85 | 0.903 | 0.542 | 0.359 | 0.35 | 0.48 | 0.344
LXF-289 | 0.819 | 0.838 | 0.787 | 0.746 | 0.866 | 0.905 | 0.909 | 0.992 | 1.13 | 1.01 | 1.02 | 1.08 | 0.976 | 0.672 | 0.551 | 0.559 | 0.608 | 0.553
NCI-H650 | 0.868 | 0.851 | 0.84 | 0.672 | 1.07 | 1 | 0.931 | 1.25 | 1.25 | 1.11 | 1.08 | 1.08 | 1.09 | 0.35 | 0.357 | 0.335 | 0.317 | 0.335
NCI-H2085 | 0.44 | 0.506 | 0.553 | 0.382 | 0.924 | 1.01 | 0.901 | 0.986 | 1.08 | 0.989 | 1.05 | 1 | 0.913 | 0.492 | 0.481 | 0.451 | 0.486 | 0.463
NCI-H1793 | 0.357 | 0.255 | 0.31 | 0.161 | 0.752 | 0.882 | 0.647 | 0.693 | 0.871 | 0.706 |  | 0.858 | 0.652 | 0.352 | 0.327 | 0.283 | 0.3 | 0.271
LC-2-ad | 0.653 | 0.366 | 0.386 | 0.158 | 0.263 | 0.276 | 0.28 | 0.268 | 0.619 | 0.783 | 0.828 | 0.857 | 0.98 | 0.573 | 0.493 | 0.499 | 0.493 | 0.528
COR-L 105 | 0.372 | 0.423 | 0.254 | 0.246 | 1.26 | 1.08 | 1.07 | 0.657 | 1.05 | 1.03 | 1.26 | 0.966 | 1.08 | 0.391 | 0.433 | 0.449 | 0.426 | 0.384
NCI-H1355 | 0.462 | 0.388 | 0.475 | 0.35 | 1.04 | 1.03 | 1.06 | 0.974 | 0.94 | 0.838 | 0.767 | 0.905 | 0.956 | 0.401 | 0.372 | 0.368 | 0.395 | 0.429
H3255 | 0.537 | 0.502 | 0.441 | 0.313 | 0.559 | 0.589 | 0.499 | 0.503 | 0.82 | 0.698 | 0.717 | 0.775 | 0.712 | 0.303 | 0.313 | 0.334 | 0.344 | 0.313
NCI-H1993 | 0.783 | 0.76 | 0.929 | 0.606 | 0.536 | 0.581 | 0.522 | 0.532 | 0.71 | 0.682 | 0.747 | 0.705 | 0.701 | 0.625 | 0.669 | 0.603 | 0.687 | 0.763
